Columns and labels:
[1] = test system: H460 (pulmonary carcinoma); test: cytotoxicity in vitro on H460; format: cell-based; details: read-out: IC50, concentration necessary for 50% inhibition of diseased cells growth, 24-h exposure to the drug
Excerpt: (§1) (R8=H, R9=R10=R12=OH, R11=NH2) described in patent application WO 95/09173 on lines H460 (pulmonary carcinoma) and GLC-4 (pulmonary microcarcinoma).

[2] = test system: GLC-4 (pulmonary microcarcinoma); test: cytotoxicity in vitro on GLC-4; format: cell-based, human; details: read-out: IC50, concentration necessary for 50% inhibition of diseased cells growth, 24-h exposure to the drug
Excerpt: as §1

[3] = test system: pulmonary microcytoma GLC-4; test: activity in vivo on human tumour line implanted s.c. in naked mice; details: GLC-4 s.c. in naked mice, 6 mg/kg every 3-4 days, 5 cycles (total 30 mg/kg); for LCK (Log Cell Kill): T-C/DT×3.32; for TWI % (300 mg), Tumour Weight Inhibition %: determined 7-10 days after last treatment
Experimental: The activity in vivo of (Ia), compared with that of (V), was also evaluated on a human tumour line implanted s.c. in naked mice (pulmonary microcytoma GLC-4) after administration of 6 mg/kg of drug every 3-4 days, for 5 treatment cycles.
The results obtained are shown in Table 2, which reports the Tumour Weight Inhibition % (TWI% determined 7-10 days after the last treatment) and the Log Cell Kill [LCK in animals treated according to the formula: T-C/DT×3.32, where T and C are the days that tumours take to reach the significant weight fixed in each test. in treated animals (T) and in controls (C)].

Structure (SMILES)	IC50 [1]	IC50 [2]	LCK (Log Cell Kill) [3]	TWI % (300 mg), Tumour Weight Inhibition % [3]
CC1OC(OC2C(O)CC(OC3CC(O)(C(=O)CO)Cc4c(O)c5c(c(O)c43)C(=O)c3ccccc3C5=O)OC2C)CC(N)C1O.Cl [V, 7-O-[2,6-dideoxy-4-O-(2,3,6-trideoxy-3-amino-α-L-lyxo-hexopyranosyl)-α-L-lyxo-hexopyranosyl]-4-demethoxy-doxorubicinone chlorhydrate]	14 nM	55 nM	0.4	60%
C[C@@H]1O[C@@H](O[C@@H]2[C@H](C)O[C@@H](O[C@H]3C[C@](O)(C(=O)CO)Cc4c(O)c5c(c(O)c43)C(=O)c3ccccc3C5=O)C[C@@H]2O)C[C@H](N)[C@H]1O.Cl [Ia, 7-O-[2,6-dideoxy-4-O-(2,3,6-trideoxy-3-amino-α-L-arabino-hexopyranosyl)-α-L-lyxo-hexopyranosyl]-4-demethoxy-doxorubicinone chlorhydrate]	10 nM	11 nM	1.1	93%

From patent US6653289B1, “L-arabino-disaccharides of anthracyclines, processes for their preparation, and pharmaceutical compositions containing them” (Menarini Ricerche S.p.A., priority 1999, dated 2003)
